Reference: US11992011B2, “Compounds for controlling plant pathogens” (VIB VZW, priority 2017, dated 2024)

Assays:
[1] = test system: Arabidopsis thaliana (ecotype Col-0) seedlings; experiment: In vitro Arabidopsis thaliana seedling growth assay (Example 15); format: in vivo; conditions: for Agravitropy ratio / Primary root length / Rosette area: 14 days old seedlings; for Agravitropy ratio / Primary root length / Rosette area / Germination rate: mean ± SD
C4H enzyme = experiment: Yeast heterologous expression assay of C4H inhibition (Example 15); format: biochemical
Procedure: Further structural analogs of the C4H inhibitor 4-iodobenzoic acid (IBA) were tested for their ability to inhibit the C4H enzyme in a yeast heterologous expression assay.

Meloidogyne incognita = experiment: M. incognita infection in DIECA-treated tomato (Example 18); format: in vivo; conditions: DIECA alone
Procedure: Infection experiments with M. incognita were performed in the same manner as those with M. graminicola, except that plants were harvested 31 days after inoculation instead of 14 days. At this point, the plants were phenotyped by measuring the root length with a ruler and in some experiments by measuring leaf area using the EasyLeafArea software (Easlon and Bloom, 2014) and by determining shoot dry mass after 72 hours of drying in an oven at 70° C. Galls were stained and counted as described above.
To determine whether C4H inhibitors depend on this hormonal pathway, it was tested whether tomato plants treated with the chemical inhibitor of jasmonic acid biosynthesis diethyldithiocarbamate (DIECA) (Farmer et al., 1994) still responded to PA treatment.

[2] = test system: J2 juveniles of Meloidogyne graminicola; experiment: In vitro nematode toxicity assay, M. graminicola J2 (Example 11); conditions: second experiment, C4H inhibitor 100 μM, Vertimec 0.02 v/v % abamectin, water control 93%
Procedure: J2 juveniles of Meloidogyne graminicola and Heterodera schachtii were isolated from Echinocloa cruss-galli roots and sugar beet roots respectively. Per treatment and species combination, 300 nematodes were isolated and divided over six wells that contained 1.5 ml of either sterilized tap water, a 100 μM C4H inhibitor solution or a 0.02 v/v % solution of the nematicide abamectin (Vertimec®, Syngenta AG). The nematodes were incubated in the dark on a slow-moving rotary shaker (50 rpm) and the number of living nematodes was counted regularly using a binocular microscope.
To rule out definitively that the compounds of the invention operate through direct toxicity to nematodes, an in vitro toxicity assay on J2 juveniles of the nematodes Meloidogyne graminicola and Heterodera schachtii was performed.
First, survival upon exposure to the C4H inhibitor piperonylic acid (PA) was compared to a negative control (tap water) and a positive control, the commercial nematicide Vertimec (0.02% Abamectin). A detailed survival curve is shown in FIG. 12a (M. graminicola) and FIG. 12b (H. schachtii).
In a second experiment, a broader range of C4H inhibitors were assayed in the same manner. The toxicity of piperonylic acid (PA), piperine (PIP), 4-propynyloxybenzoic acid (4PB), and 3-(4-pyridyl)acrylic acid (3PA) to J2 juveniles of Meloidogyne graminicola was compared to a negative control (tap water) and a true nematicide (Vertimec, active ingredient abamectin).

Meloidogyne graminicola [3] = experiment: Meloidogyne graminicola infection in rice cv. Kitaake, additional C4H inhibitors (Example 6); format: in vivo; conditions: foliar spray, N=8
Procedure: (§1) Unless otherwise mentioned, all chemicals for nematode experiments were applied as a foliar spray consisting of the target compound at a concentration of 300 μM together with 0.1% (v/v) Tween 20 surfactant (Calbiochem) in distilled water. Again unless otherwise mentioned, all treatments for the nematode experiments were carried out three times: one and eight days before pathogen inoculation and seven days after pathogen inoculation. In all cases, plants were sprayed until run-off with an atomizer.
(§2) Infection experiments with M. graminicola were performed by inoculating host plants 14 days after transfer to SAP by introducing the desired amount of J2 juveniles next to the root system using a micro pipette. Rice plants (cv. Nipponbare or Kitaake) were inoculated with 250 J2 juveniles per plant; wheat plants (cv. Sahara) were inoculated with 600 J2 juveniles per plant. Plants were harvested 14 days after inoculation. At this point, the plants were phenotyped by measuring the shoot and root length with a ruler, counting the number of adventitious roots and in some experiments by measuring leaf area using the EasyLeafArea software (Easlon and Bloom, 2014) and by determining shoot dry mass after 72 hours of drying in an oven at 70° C. Root systems were then stained in acid fuchsine as described in (Byrd et al., 1983) and left to destain in glycerol with 1 ml/l fuming HCl added for approximately ten days. The number of galls and nematodes was then counted using a binocular microscope.
Four different C4H inhibitors were used: piperonylic acid (PA), piperine (PIP), 4-propynyloxybenzoic acid (4PB) and 3-(4-pyridyl)acrylic acid (3PA).

wheat = experiment: Phytotoxicity of foliar spray in uninfected wheat (Example 1); format: in vivo, Triticum aestivum; conditions: 500 μM foliar spray, 8 plants per treatment; for Root length / Shoot length: mean ± standard deviation; for BBCH stage: median ± interquartile range
Procedure: (§3) For Examples 1, 5 and 10, seeds of the winter wheat cultivar Sahara (Aveve Agrarisch, Landen, Belgium) were used. Seeds were washed in a 10% ethanol solution to remove any residual traces of fungicide and then germinated on wet paper at room temperature for four days; seeds were transferred to SAP tubes and placed in a growth chamber (25° C., 16 hours per day of light). Plants were watered with 8 ml of half-strength Hoagland solution every two days for the first ten days and with 8 ml of full strength Hoagland solution every two days afterwards.
as §1
(§4) Short-term phytotoxicity experiments (Example 1) were analyzed using non-parametric methods. For each variable, overall significance was determined using the Kruskal-Wallis test (Kruskal and Wallis, 1952), followed by a posthoc Conover-Iman test (Conover and Iman, 1981) with Hommel multiplicity correction (Hommel, 1988) if the Kruskal-Wallis test was significant. When only two groups were present, the Wilcoxon-Mann-Whitney test was used (Mann and Whitney, 1947).
(§5) To test whether C4H inhibitors induce phytotoxic effects in crops, uninfected tomato, wheat and carrot were treated with piperonylic acid (PA), 4-iodobenzoic acid (4-IBA) and piperic acid (PIA) at a concentration of 500 μM through foliar application. At harvest, leaf area (or shoot length in the case of wheat) and primary root length were recorded. The BBCH developmental stage (Lancashire et al., 1991), a measure of developmental retardation, was used to test for effects on development. Finally, the presence of visible signs of phytotoxicity such as chlorosis, discoloration or necrosis was recorded.

tomato = experiment: Phytotoxicity of foliar spray in uninfected tomato (Example 1); format: in vivo, Solanum lycopersicum; conditions: 500 μM foliar spray, 8 plants per treatment; for Leaf Area / Root length: mean ± standard deviation; for BBCH stage: median ± interquartile range
Procedure: Tomato seeds, cv. Moneymaker (Vreeken's Zaden, Dordrecht, the Netherlands) were sown on autoclaved potting soil coveed with polyethylene film and placed at 24° C. for eight days. Seedlings were then transferred to individual SAP-filled pots and placed in a growth chamber at 24° C. Plants were watered three times per week with 25 ml of quarter-strength Hoagland solution for the first two weeks and half-strength thereafter.
as §1, §4, §5

Meloidogyne graminicola [4] = experiment: Meloidogyne graminicola infection in wheat cv. Sahara (Example 5); format: in vivo; conditions: infected wheat, foliar spray
Procedure: as §3, §1, §2
In this experiment, the compounds PA, MDCA and 4-IBA were tested as foliar spray in the monocot staple crop wheat (Triticum aestivum, cv. Sahara) against the nematode Meloidogyne graminicola. The bacterial compound LPS (lipopolysaccharide), which is a potent inducer of the plant immune system and a known priming agent (Desaki et al., 2006), was also included as a positive control.

carrot = experiment: Phytotoxicity of foliar spray in uninfected carrot (Example 1); format: in vivo, Daucus carota; conditions: 500 μM foliar spray, 8 plants per treatment; for Leaf Area: mean ± standard deviation; for BBCH stage: median ± interquartile range
Procedure: Carrot seeds, cv. Nantes 2 (Vreeken's Zaden, Dordrecht, the Netherlands) were germinated on wet paper for seven days at 21° C. After germination, seedlings were transferred to individual pots filled with potting soil and placed in a growth chamber at 21° C.
as §1, §4, §5

[5] = test system: spring wheat (Triticum aestivum cv. Fielder); experiment: Yield and fertility in pathogen-free spring wheat (Example 2); conditions: 300 μM foliar spray three times; vs. control
Procedure: For Example 2, the spring wheat cultivar Fielder was used. Seeds were obtained from plants grown in the greenhouse complex of the VIB (Zwijnaarde, Belgium). Seeds were sown directly in potting soil (four seeds to a pot, thinned to three plants per pot after emergence) and placed in a growth chamber at 21° C. with 16 hours per day of light. These plants were grown until harvest; they were sprayed three times with the compounds of the invention at a concentration of 300 μM using the protocol described in the chemicals section. Spraying took place 14 and 21 days after emergence and a final time at heading.
In all cases model assumptions were verified using diagnostic plots (residuals, QQ-plot, scale-location and residuals-leverage). Outliers were removed only if they were outliers both in the statistical sense and if there was a biological reason for removal (e.g. the plant was stunted or developed a secondary infection).
To determine the effects of C4H inhibition on yield and fertility, spring wheat (Triticum aestivum cv. Fielder) was grown in a pathogen-free growth chamber until maturity and treated with a control or C4H inhibitor-containing foliar spray at regular intervals. At harvest, the number of ears per plant, the seed mass, the size of the seeds and the germination ability of the freshly harvested seeds were measured. Seed size was measured using the stacking density of the seed as a proxy measure; if a given seed mass takes up a greater volume, then the individual seeds must be larger.

O=C(O)c1ccc(C(F)(F)F)cc1 [CF3-BA, 4-trifluoromethylbenzoic acid] gave an Agravitropy ratio ([1]; 50 μM) of 0.79 ± 0.15, a Primary root length ([1]; 50 μM) of 0.42 ± 0.14 cm and a Rosette area ([1]; 50 μM) of 0.16 ± 0.06 cm^2. The Germination rate ([1]; 50 μM) was 0.95 ± 0.22, the Agravitropy ratio ([1]; 100 μM) was 0.81 ± 0.10 and the Primary root length ([1]; 100 μM) was 0.41 ± 0.14 cm. For the same compound, the Rosette area ([1]; 100 μM) was 0.15 ± 0.09 cm^2, the Germination rate ([1]; 100 μM) was 0.84 ± 0.37 and the “seedling phenotype compared with IBA” value ([1]; seedlings grown on amended medium) was “identical phenotype to those grown on medium containing IBA”. For the same compound, the C4H inhibitor activity (C4H enzyme) was “significant C4H inhibitor activity”.

CCN(CC)C(=S)S [DIECA, diethyldithiocarbamate, reference compound] was tested, and the “change of number of galls, DIECA-treated tomato plants vs wild type” value (Meloidogyne incognita) was “+26%”.

For O=C(O)/C=C/c1ccncc1 [Formula 3PA, 3-(4-pyridyl)-acrylic acid], the “survival at the end of the experiment” value [2] was 93% and the “reduction in the number of galls compared to the control group” value (shortened to “reduction in the number of galls”) (Meloidogyne graminicola [3]) was −47%.

For O=C(O)c1ccc(I)cc1 [Formula 4-IBA, 4-iodobenzoic acid], the Root length (wheat) was 14.36 ± 2.78 cm, the Shoot length (wheat) was 31.93 ± 3.38 cm and the BBCH stage (wheat) was 13 ± 0. For the same compound, the Agravitropy ratio ([1]; 50 μM) was 0.78 ± 0.17, the Primary root length ([1]; 50 μM) was 0.43 ± 0.15 cm and the Rosette area ([1]; 50 μM) was 0.10 ± 0.06 cm^2. It also gave a Germination rate ([1]; 50 μM) of 0.88 ± 0.34, an Agravitropy ratio ([1]; 100 μM) of 0.82 ± 0.11 and a Primary root length ([1]; 100 μM) of 0.28 ± 0.07 cm. The Rosette area ([1]; 100 μM) was 0.05 ± 0.01 cm^2, the Germination rate ([1]; 100 μM) was 0.84 ± 0.37 and the “Leaf Area” value (tomato) was 8.92 ± 1.91 cm^2. The Root length (tomato) was 7.40 ± 0.79 cm, the BBCH stage (tomato) was 102.5 ± 1.0 and the “Number of galls per AR” value (Meloidogyne graminicola [4]; n = 9) was 2.7 ± 0.8. The Number of galls (Meloidogyne graminicola [4]; per root system, n = 9) was 27.8 ± 7.5, the “reduction in gall numbers” value (Meloidogyne graminicola [4]; vs control) was −27% and the “survival at the end of the experiment” value [2] was 89%. The “Leaf Area” value (carrot) was 5.05 ± 1.35 cm^2 and the BBCH stage (carrot) was 13 ± 0.

C#CCOc1ccc(C(=O)O)cc1 [Formula 4PB, 4-propynyloxybenzoic acid] was tested, and the C4H inhibitor activity (C4H enzyme) was “significant C4H inhibitor activity”, the “survival at the end of the experiment” value [2] was 91% and the “reduction in the number of galls” value (Meloidogyne graminicola [3]) was −44%.

Compound O=C(O)/C=C/C=C/c1ccc2c(c1)OCO2 [PIA, Piperic acid] has a Root length (wheat) of 14.57 ± 1.24 cm, a Shoot length (wheat) of 31.07 ± 4.82 cm and a BBCH stage (wheat) of 13 ± 0. The “Leaf Area” value (tomato) was 12.21 ± 1.66 cm^2, the Root length (tomato) was 8.24 ± 1.90 cm and the BBCH stage (tomato) was 103 ± 1.0. For the same compound, the “Leaf Area” value (carrot) was 4.78 ± 0.85 cm^2 and the BBCH stage (carrot) was 13 ± 0.

With O=C(/C=C/C=C/c1ccc2c(c1)OCO2)N1CCCCC1 [piperine, Piperine] the “Total yield (seed mass)” value [5] was “small but statistically significant increase”, the “germination after fourteen days of freshly harvested seeds” value [5] was “not significantly different” and the “mean number of ears per plant” value [5] was “the same in all treatments”. For the same compound, the “seed size (stacking density)” value [5] was “no effect”, the “survival at the end of the experiment” value [2] was 91% and the “reduction in the number of galls” value (Meloidogyne graminicola [3]) was −33%.
